Experimental data published in paper doi:10.1101/2023.12.04.569845, “Identification of 4-(6-((2-methoxyphenyl)amino)pyrazin-2-yl)benzoic acids as CSNK2A inhibitors with antiviral activity and improved selectivity over PIM3” (bioRxiv, 2023).
Read-outs that look alike come from different tables or passages of the source.

Legend:
Experiment in all cases: biochemical
[1] = target: T1, TIF1 (Homo sapiens, UniProt O15164); parameters: Thermal shift assay (SYPRO Orange DSF) of recombinant kinase domains; Tm shift
T1 construct: gene TRIM24
T1 sequence (O15164 1-1050): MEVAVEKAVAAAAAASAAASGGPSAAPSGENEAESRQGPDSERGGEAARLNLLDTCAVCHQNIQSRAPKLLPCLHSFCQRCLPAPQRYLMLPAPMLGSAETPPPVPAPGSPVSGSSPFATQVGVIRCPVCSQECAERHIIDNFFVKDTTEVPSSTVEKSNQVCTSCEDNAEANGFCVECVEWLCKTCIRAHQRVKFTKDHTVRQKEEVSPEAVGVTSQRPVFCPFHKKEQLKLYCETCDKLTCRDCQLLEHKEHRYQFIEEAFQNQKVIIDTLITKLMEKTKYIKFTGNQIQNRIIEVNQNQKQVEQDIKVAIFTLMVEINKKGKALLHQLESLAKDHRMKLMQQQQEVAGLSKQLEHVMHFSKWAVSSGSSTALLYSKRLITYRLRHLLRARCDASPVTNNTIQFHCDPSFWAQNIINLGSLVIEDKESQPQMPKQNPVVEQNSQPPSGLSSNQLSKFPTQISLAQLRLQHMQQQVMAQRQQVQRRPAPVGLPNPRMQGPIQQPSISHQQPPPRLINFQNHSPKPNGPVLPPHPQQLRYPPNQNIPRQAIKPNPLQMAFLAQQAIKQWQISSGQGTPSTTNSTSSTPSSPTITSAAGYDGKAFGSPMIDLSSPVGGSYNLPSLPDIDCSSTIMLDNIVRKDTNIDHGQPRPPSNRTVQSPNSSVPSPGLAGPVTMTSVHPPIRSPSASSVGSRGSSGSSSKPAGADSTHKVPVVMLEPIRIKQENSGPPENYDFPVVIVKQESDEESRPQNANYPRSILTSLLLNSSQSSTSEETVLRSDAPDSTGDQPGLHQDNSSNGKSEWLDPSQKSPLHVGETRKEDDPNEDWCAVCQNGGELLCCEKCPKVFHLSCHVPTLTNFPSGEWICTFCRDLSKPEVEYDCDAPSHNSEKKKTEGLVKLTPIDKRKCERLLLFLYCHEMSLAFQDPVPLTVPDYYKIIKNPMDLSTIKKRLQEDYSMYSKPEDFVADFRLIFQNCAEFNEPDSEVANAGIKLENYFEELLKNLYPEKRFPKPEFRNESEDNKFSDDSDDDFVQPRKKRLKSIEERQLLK
Protocol: (§1) S23 Thermal stability kinase selectivity. The assay was performed as previously described. 9,10 Briefly, recombinant protein kinase domains at a concentration of 2 μM were mixed with 10 μM compound in a buffer containing 20 mM HEPES, pH 7.5, and 500 mM NaCl. SYPRO Orange (5000×, Invitrogen) was added as a fluorescence probe (1 µl per mL). Subsequently, temperature-dependent protein unfolding profiles were measured using the QuantStudio™ 5 realtime PCR machine (Thermo Fisher). Excitation and emission filters were set to 465 nm and 590 nm, respectively. The temperature was raised with a step rate of 3°C per minute. Data points were analysed with the internal software (Thermal Shift SoftwareTM Version 1.4, Thermo Fisher) using the Boltzmann equation to determine the inflection point of the transition curve.

[2] = target: T2, ATK3 (Homo sapiens, UniProt Q9Y243); parameters: Thermal shift assay (SYPRO Orange DSF) of recombinant kinase domains; Tm shift
T2 construct: gene AKT3; kinase domain
Protocol: as §1

[3] = target: T3, BMPR2 (Homo sapiens, UniProt Q13873); parameters: Thermal shift (DSF, SYPRO Orange) Tm shift of recombinant kinase domains at 10 uM compound
T3 sequence (Q13873 1-1038): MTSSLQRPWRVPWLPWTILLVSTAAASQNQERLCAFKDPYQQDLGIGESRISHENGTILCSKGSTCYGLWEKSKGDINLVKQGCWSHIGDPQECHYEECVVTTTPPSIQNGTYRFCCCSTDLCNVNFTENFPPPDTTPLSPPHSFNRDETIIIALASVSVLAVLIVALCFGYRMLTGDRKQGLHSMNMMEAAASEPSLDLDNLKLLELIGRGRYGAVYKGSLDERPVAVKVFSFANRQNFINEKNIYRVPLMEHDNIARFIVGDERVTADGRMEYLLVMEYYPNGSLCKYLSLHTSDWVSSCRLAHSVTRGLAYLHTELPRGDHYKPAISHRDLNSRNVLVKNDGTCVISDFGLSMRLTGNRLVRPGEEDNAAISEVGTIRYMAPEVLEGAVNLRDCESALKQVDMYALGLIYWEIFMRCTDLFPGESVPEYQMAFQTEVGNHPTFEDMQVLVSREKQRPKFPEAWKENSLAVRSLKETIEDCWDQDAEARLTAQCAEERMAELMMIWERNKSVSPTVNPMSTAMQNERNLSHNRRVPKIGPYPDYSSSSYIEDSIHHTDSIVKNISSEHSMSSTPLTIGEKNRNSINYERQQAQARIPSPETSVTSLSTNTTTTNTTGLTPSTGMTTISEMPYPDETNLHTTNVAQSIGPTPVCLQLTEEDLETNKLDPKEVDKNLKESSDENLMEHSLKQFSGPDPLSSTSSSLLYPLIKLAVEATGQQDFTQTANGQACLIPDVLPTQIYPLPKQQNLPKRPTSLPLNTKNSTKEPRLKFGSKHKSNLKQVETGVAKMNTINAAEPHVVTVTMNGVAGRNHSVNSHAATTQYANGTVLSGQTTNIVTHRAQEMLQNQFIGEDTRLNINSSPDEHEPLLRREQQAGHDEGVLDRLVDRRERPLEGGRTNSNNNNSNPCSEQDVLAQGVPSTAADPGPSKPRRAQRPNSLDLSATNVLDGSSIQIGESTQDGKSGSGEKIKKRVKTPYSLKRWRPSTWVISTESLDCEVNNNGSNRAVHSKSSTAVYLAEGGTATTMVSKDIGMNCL

[4] = target: SLK (Homo sapiens, UniProt Q9H2G2); parameters: Thermal shift (DSF, SYPRO Orange) Tm shift of recombinant kinase domains at 10 uM compound
SLK, sequence (Q9H2G2 whole entry, the tested form may be a part): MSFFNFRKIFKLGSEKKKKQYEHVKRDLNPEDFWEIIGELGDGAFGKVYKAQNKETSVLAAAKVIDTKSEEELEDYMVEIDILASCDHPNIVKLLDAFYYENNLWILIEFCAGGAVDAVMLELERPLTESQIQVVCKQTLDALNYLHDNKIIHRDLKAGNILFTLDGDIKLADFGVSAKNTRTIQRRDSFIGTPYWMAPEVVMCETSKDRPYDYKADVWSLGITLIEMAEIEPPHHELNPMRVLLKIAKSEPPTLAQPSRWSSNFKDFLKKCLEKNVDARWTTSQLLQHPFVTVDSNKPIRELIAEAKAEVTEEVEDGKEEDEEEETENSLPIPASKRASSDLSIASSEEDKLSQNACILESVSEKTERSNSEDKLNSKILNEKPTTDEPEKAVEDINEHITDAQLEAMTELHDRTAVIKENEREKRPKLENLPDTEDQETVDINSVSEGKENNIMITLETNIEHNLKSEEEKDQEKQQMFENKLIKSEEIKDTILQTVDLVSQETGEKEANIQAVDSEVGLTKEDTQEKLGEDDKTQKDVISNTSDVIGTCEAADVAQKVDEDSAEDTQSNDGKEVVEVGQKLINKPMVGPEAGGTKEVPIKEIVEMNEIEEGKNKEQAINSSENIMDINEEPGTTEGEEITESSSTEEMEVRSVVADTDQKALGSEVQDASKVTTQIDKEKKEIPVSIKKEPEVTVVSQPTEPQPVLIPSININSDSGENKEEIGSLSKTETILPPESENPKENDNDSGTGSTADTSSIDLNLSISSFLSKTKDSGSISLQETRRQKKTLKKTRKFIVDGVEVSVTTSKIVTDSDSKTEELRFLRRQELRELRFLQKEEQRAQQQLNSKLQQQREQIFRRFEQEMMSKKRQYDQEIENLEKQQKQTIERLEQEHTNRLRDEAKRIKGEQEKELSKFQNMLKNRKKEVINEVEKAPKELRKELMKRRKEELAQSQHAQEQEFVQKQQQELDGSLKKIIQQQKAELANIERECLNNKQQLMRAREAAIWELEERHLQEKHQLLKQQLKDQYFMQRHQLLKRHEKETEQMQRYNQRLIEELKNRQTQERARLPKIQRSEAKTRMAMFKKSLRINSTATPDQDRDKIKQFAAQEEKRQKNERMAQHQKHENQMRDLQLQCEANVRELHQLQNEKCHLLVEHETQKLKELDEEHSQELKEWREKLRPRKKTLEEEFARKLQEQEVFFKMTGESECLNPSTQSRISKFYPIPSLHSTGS

T2 sequence (Q9Y243 whole entry, the tested form may be a part): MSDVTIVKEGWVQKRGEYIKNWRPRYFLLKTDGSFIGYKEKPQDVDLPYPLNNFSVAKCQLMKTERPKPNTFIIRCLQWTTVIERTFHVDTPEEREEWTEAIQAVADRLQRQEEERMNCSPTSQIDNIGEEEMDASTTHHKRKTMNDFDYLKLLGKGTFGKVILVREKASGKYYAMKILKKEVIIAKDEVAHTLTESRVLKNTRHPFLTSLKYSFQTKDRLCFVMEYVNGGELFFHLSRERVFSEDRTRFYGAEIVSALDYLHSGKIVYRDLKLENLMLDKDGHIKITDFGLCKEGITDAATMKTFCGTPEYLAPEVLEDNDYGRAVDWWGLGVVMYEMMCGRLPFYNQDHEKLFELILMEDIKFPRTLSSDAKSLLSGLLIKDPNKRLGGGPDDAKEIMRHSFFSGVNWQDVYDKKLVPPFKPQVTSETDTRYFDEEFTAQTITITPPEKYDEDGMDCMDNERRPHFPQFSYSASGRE

## COc1ccc(OC(C)C)cc1Nc1cncc(-c2ccc(C(=O)O)cc2)n1 [7c]
[1]; read-out: 7c
  ΔTm at 10 µM: -1 °C
[2]; read-out: 7c
  ΔTm at 10 µM: -1 °C
[3]; read-out: 7c
  ΔTm at 10 µM: 0 °C
[4]; read-out: 7c
  ΔTm at 10 µM: 1 °C

## CC(C)Nc1ccc2cnn(-c3cncc(-c4ccc(C(=O)O)cc4)n3)c2c1 [compound 2, 2]
[1]; read-out: 2
  ΔTm at 10 µM: 0 °C
[2]; read-out: 2
  ΔTm at 10 µM: 1 °C
[3]; read-out: 2
  ΔTm at 10 µM: 6 °C
[4]; read-out: 2
  ΔTm at 10 µM: 3 °C

## CC(C)Oc1ccc2ccn(-c3cncc(-c4ccc(C(=O)O)cc4)n3)c2c1 [6c]
[1]; read-out: 6c
  ΔTm at 10 µM: -2 °C
[2]; read-out: 6c
  ΔTm at 10 µM: -1 °C
[3]; read-out: 6c
  ΔTm at 10 µM: 7 °C
[4]; read-out: 6c
  ΔTm at 10 µM: 2 °C
